Data reported in PubChem BioAssay AID652253 (Vanderbilt Specialized Chemistry Center, 2013).
The source made the active and inactive calls. No rule for the calls is given here.

target: Proteinase-activated receptor 4 (Homo sapiens) (UniProt Q96RI0); test: potency of PAR4-AP response blockers – cell-based, CRC, dose response (AID 652253); settings: cells, PAR4-AP induced response, antagonist CRC
Sequence (Q96RI0 whole entry, looked up): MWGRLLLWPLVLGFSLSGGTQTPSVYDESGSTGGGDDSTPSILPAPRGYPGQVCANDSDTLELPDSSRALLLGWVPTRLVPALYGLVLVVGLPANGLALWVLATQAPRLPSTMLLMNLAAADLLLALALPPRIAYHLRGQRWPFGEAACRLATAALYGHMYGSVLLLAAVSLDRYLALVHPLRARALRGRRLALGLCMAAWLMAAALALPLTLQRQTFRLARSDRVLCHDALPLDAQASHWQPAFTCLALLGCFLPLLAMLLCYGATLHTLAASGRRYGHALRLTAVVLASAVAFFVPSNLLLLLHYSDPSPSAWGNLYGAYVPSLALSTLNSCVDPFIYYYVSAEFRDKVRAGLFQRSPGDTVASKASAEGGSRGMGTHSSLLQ

Row | IC50 | Compound
1 | inactive | COc1ccc(-c2cn(Cc3cccc(F)c3)c3ccccc23)cn1
2 | 139 nM | COc1ccc(COc2ccc(C(=O)NCCC(C)(C)C)cc2)cc1
3 | inactive | COc1ccc(-c2cn(Cc3cccc(Br)c3)c3ccccc23)cn1

The next lines start with the molecule.

Row | Compound | IC50
4 | COc1ccc(-c2cn(Cc3ccccc3)c3ccccc23)cn1 | inactive
5 | COc1ccc(-c2cn(Cc3cccc(Cl)c3)c3ccccc23)cn1 | inactive

same assay, conditions: cells, PAR4-AP induced response, antagonist CRC; at 10 µM (top of the series)

Row | % PAR4-AP response remaining | Compound
6 | inactive | COc1ccc(-c2cn(Cc3cccc(S(C)(=O)=O)c3)c3ccccc23)cn1
7 | inactive | COc1ccc(-c2cn(Cc3ccccc3)c3ccccc23)cc1
8 | inactive | Fc1ccc(-c2cn(Cc3ccccc3)c3ccccc23)cn1
